Assays:
SGK2α = target: T1, SGK2α (Homo sapiens, UniProt Q9HBY8); test: SGK2α in vitro kinase assay; format: biochemical; conditions: recombinant human GST-SGK2α, [γ-32P]-ATP, 15 minutes at ambient temperature
T1 construct: made in house; host or cells: baculovirus; Sf9 (virus generation) and High Five insect cells (expression)
T1 sequence (Q9HBY8 1-367): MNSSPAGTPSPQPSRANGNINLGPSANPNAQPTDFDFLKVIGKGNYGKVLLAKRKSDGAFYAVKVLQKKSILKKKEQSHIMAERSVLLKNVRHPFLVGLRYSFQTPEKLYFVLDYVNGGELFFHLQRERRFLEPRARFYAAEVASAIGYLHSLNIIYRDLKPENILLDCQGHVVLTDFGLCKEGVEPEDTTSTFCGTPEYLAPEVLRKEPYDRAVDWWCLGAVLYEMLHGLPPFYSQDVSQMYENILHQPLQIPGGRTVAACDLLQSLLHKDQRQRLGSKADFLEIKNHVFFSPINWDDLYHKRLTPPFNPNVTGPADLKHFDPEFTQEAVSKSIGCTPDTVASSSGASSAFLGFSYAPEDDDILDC
Description: SGK2α cDNA was cloned from human brain cDNA library by the polymerase chain reaction (PCR) technique and subsequently inserted directly into pPCR-2.1 T/A cloning vector (Strategene). After DNA sequencing, the confirmed wild-type human SGK2α cDNA was subcloned into baculovirus expression vector pAcG2T (BD PharMingen) for recombinant protein expression in insect cells. Expression of human SGK2α as a fusion protein required that the cDNA be ligated into the polyclonal site situated in frame and downstream of the glutathione-S-transferase gene of the baculovirus transfer vector pAcG2T. The 1104 base pair SGK2α coding sequence was excised from the pPCR-2.1 T/A vector using the Bam HI and Eco RI restriction sites generated the 5′ and 3′ of the coding sequence respectively by PCR amplification. This DNA fragment was directionally subcloned in-frame into the Bam HI and Eco RI polyclonal sites of the pAcG2T vector. Positive recombinant clones of SGK2α in the pAcG2T vector were determined by restriction enzyme analysis with Bam HI and Eco RI restriction enzymes.
Active SGK2α enzyme was expressed using the baculovirus expression vector system in a two-step process. […] A complete quantitative and qualitative analysis of the protein was monitored using Coomassie blue staining and Western blot analysis using anti-GST specific antibody (Kinetek). […]

H460 cells = test: Cell proliferation (3H-thymidine incorporation), H460; format: cell-based; conditions: Homo sapiens, NCI-H460, 24 hours, read-out: in vitro inhibition of cell proliferation
Description: (§1) This procedure (Jelinkova, R. B. et al., “Antiproliferative effect of a lectin- and anti-Thy-1.2 antibody-targeted HPMA copolymer-bound doxorubicin on primary and metastatic human colourectal carcinoma and on human colourectal carcinoma transfected with the mouse Thy-1.2 gene”, Bioconjug. Chem. (2000), Vol. 11, No. 5, pp. 664-73) is used to assess the effect compounds have on various cell lines with respect to proliferation. The rate of anchorage-independent growth of various tumour cells is quantified by measuring the amount of free isotopic thymidine that has been incorporated into the cells over a period of time. The effect of any compound to inhibit the proliferation of various tumour cells could be used as an indication of its ability to prevent disease progression in cancer.
(§2) Cultured tumour cells are harvested cells as per normal procedures: i.e. trypsinize, centrifuge and count cells. […]
(§3) After incubation, plates are observed under the microscope for obvious cell death, abnormal cell shape, crystal formation of the compound, etc. […] Finally, 100 μL of scintillation fluid is added to each well and the plates are counted in a Wallac™ 1450 Microbeta™ counter according to user manual instructions.
(§4) The amount of inhibition is determined by the following formula: % inhibition=100−[(AVG treatment−AVG positive control)/[…]]

HUVEC cells [1] = test: Cell proliferation (3H-thymidine incorporation), HUVEC; format: cell-based; conditions: Homo sapiens, 24 hours, read-out: in vitro inhibition of cell proliferation
Description: as §1, §2, §3, §4

PC3 cells = test: Cell proliferation (3H-thymidine incorporation), PC3; format: cell-based; conditions: Homo sapiens, PC-3, 24 hours, read-out: in vitro inhibition of cell proliferation
Description: as §1, §2, §3, §4

HS27 cells = test: Cytotoxicity assay (calcein AM cell viability), HS27; format: cell-based; conditions: 50 μM, approximately 24 hours
Description: (§5) This procedure is used to assess the effects compounds have on various cell lines with respect to cell viability. Cell viability is quantified using calcein AM and measuring its conversion to a fluorescent product (calcein) with a fluorimeter.
(§6) The principle of this assay is based on the presence of ubiquitous intracellular esterase activity found in live cells. By enzymatic reaction of esterase, non-fluorescent cell-permeant calcein AM is converted to the intensely fluorescent calcein. The polyanionic dye calcein is retained within live cells, producing a green fluorescence in live cells. […]
(§7) Cells were collected from tissue culture flasks and trypsinized, centrifuged, resuspended and counted. […]
(§8) The calcein AM solution is prepared by added 50 μg of calcein AM crystal (m.w.=994.87 g/mol, Molecular Probes, Eugene, Oreg.) and nnhydrous DMSO (Sigma Aldrich) to make 1 mM stock and diluting stock to 2× the final desired concentration in 1×DPBS just before the assay. […] Fluorescence data was read and recorded (Fluoroskan Ascent® FL fluorimeter (excitation˜485 nm, emission˜527 nm)).
(§9) The values for replicates (usually six) are averaged and % inhibition is calculated as follows: % inhibition=100−[(AVG treatment−AVG positive control)/(AVG negative control−AVG positive control)*100]

HUVEC cells [2] = test: Cytotoxicity assay (calcein AM cell viability), HUVEC; format: cell-based; conditions: 50 μM, approximately 24 hours
Description: as §5, §6, §7, §8, §9

LL-86 cells = test: Cytotoxicity assay (calcein AM cell viability), LL-86; format: cell-based; conditions: 50 μM, approximately 24 hours
Description: as §5, §6, §7, §8, §9

CCc1c2cc(OC)c(OC)cc2cc(=O)n1Cc1ccccc1 [2-Benzyl-1-ethyl-6,7-dimethoxy-2H-isoquinolin-3-one]
IC50 (SGK2α): 970 nM
inhibition at 50 µM (H460 cells): 27%
inhibition at 50 µM (HUVEC cells [1]): 42%
inhibition at 50 µM (PC3 cells): 67%
in vitro cytotoxicity (HS27 cells): 0%
in vitro cytotoxicity (HUVEC cells [2]): 4%
in vitro cytotoxicity (LL-86 cells): 0%
